# What was measured:
# [1] = target: Phosphatidylinositol 4,5-bisphosphate 3-kinase catalytic subunit alpha isoform (Homo sapiens, UniProt P42336); assay: Inhibition of PI3 kinase
# [2] = Stability in RPMI culture media assessed as half life at 1.5 mM by HPLC; format: physicochemical; settings: 1500 µM
# [3] = Stability in PBS at pH 7.4 assessed as half life at 1.5 mM by HPLC in presence of NAc-lysine; format: physicochemical; settings: buffer, pH 7.4, 1500 µM
# [4] = Stability in PBS at pH 7.4 assessed as half life at 1.5 mM by HPLC; format: physicochemical; settings: buffer, pH 7.4, 1500 µM
# [5] = Stability in PBS at pH 7.4 assessed as half life at 1.5 mM by HPLC in presence of proline; format: physicochemical; settings: buffer, pH 7.4, 1500 µM
# [6] = Stability in PBS at pH 7.4 assessed as half life at 1.5 mM by HPLC in presence of glycine; format: physicochemical; settings: buffer, pH 7.4, 1500 µM
# Chain of Phosphatidylinositol 4,5-bisphosphate 3-kinase catalytic subunit alpha isoform (P42336 whole entry, canonical isoform): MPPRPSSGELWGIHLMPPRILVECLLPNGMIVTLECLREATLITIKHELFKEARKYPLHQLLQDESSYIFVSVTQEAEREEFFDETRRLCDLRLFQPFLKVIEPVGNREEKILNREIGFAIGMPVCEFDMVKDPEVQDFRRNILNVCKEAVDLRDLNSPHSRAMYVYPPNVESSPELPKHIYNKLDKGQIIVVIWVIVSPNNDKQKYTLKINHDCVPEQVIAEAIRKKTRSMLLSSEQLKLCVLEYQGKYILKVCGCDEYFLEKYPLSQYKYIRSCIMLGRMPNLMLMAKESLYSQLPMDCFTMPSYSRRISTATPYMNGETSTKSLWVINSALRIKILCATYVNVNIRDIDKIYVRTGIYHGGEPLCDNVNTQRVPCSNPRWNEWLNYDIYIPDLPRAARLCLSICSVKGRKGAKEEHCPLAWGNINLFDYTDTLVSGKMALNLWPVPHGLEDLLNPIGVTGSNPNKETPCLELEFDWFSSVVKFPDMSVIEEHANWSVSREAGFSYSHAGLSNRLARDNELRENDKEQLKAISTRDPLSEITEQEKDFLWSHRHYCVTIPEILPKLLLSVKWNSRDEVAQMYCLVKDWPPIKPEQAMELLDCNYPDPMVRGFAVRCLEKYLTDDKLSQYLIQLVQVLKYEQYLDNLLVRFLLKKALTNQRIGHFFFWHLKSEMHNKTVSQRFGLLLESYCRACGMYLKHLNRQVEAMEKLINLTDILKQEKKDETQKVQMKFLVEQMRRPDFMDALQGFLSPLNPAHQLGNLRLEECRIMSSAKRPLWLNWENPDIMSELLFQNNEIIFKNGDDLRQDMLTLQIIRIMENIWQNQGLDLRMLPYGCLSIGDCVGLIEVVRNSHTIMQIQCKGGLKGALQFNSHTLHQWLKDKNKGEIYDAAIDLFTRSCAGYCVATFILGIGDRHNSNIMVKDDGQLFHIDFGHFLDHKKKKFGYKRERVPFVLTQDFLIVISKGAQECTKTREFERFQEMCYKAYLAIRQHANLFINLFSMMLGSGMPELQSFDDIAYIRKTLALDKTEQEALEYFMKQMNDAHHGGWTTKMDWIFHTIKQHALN
SMILES,IC50 [1] [nM],t1/2 [2] [min],t1/2 [3] [min],t1/2 [4] [h],t1/2 [5] [min],t1/2 [6] [min]
COC[C@H]1OC(=O)/C(=C\NCCCCC(NC(C)=O)C(=O)O)C2=C(O)C(=O)C3=C([C@H](OC(C)=O)C[C@]4(C)C(=O)CC[C@@H]34)[C@]21C (stereo partly drawn),> 1000,–,–,–,–,–
COC[C@H]1OC(=O)/C(=C\N2CCCC2C(=O)O)C2=C(O)C(=O)C3=C([C@H](OC(C)=O)C[C@]4(C)C(=O)CC[C@@H]34)[C@]21C (stereo partly drawn),68,–,–,–,–,–
C[C@]12C(=C(O)C(=O)c3c1ccc1c3CCC1=O)/C(=C/NCC(=O)O)C(=O)C[C@H]2OC(=O)CCC(=O)O,–,64,94,3.63,126,–
C[C@@]12c3ccc4c(c3C(=O)c3occ(c31)C(=O)C[C@H]2OC(=O)CCC(=O)O)CCC4=O,20,0.43,23,2,108,13.5
C[C@@]12c3ccc4c(c3C(=O)c3occ(c31)C(=O)C[C@H]2O)CCC4=O [DEMETHOXYVIRIDIN],1,0.47,0.61,0.433,0.59,0.99
COC[C@H]1OC(=O)c2coc3c2[C@@]1(C)C1=C(C3=O)[C@@H]2CCC(=O)[C@@]2(C)C[C@H]1OC(C)=O [WORTMANNIN],–,0.99,18.4,57.83,1.5,4.1

# From ChEMBL document CHEMBL1152372, “A stabilized demethoxyviridin derivative inhibits PI3 kinase” (Bioorg Med Chem Lett, 2009)
